From PMC9950205, “Efficacy, safety, and pharmacokinetics of teduglutide in adult Japanese patients with short bowel syndrome and intestinal failure: two phase III studies with an extension” (Surgery Today, 2022)

Tested on: adult Japanese patients with SBS-IF
Assay: Safety: treatment-emergent adverse events (TEAEs, TESAEs)
Type: in vivo
Text: Safety analyses included the monitoring of adverse events (AEs), body weight, BMI, vital signs, 12-lead electrocardiogram (ECG), serum biochemistry, hematology, and presence of antibodies to teduglutide. AEs were coded using the Medical Dictionary for Regulatory Activities versions 17.1 (TED-C14-004) and 21.0 (SHP633-306 and SHP633-307). Specifically, AEs were treatment-emergent AEs (TEAEs), defined as any unfavorable and unintended sign (including any abnormal laboratory finding), symptom, or disease that occurred during treatment with teduglutide, whether or not the event was considered to be related to the study drug by the clinical study investigator. AEs were also categorized as mild, moderate, or severe. […] AEs were considered related to treatment with teduglutide, or its administration, based on the investigator's medical judgment.

[1] = ≤ 24 weeks (SHP633-306 and TED-C14-004), 0.05 mg/kg/day

## CC[C@H](C)[C@H](NC(=O)[C@H](Cc1ccccc1)NC(=O)[C@H](CC(=O)O)NC(=O)[C@H](CCCNC(=N)N)NC(=O)[C@H](C)NC(=O)[C@H](C)NC(=O)[C@H](CC(C)C)NC(=O)[C@H](CC(N)=O)NC(=O)[C@H](CC(=O)O)NC(=O)[C@H](CC(C)C)NC(=O)[C@@H](NC(=O)[C@@H](NC(=O)[C@H](CC(N)=O)NC(=O)[C@H](CCSC)NC(=O)[C@H](CCC(=O)O)NC(=O)[C@H](CC(=O)O)NC(=O)[C@H](CO)NC(=O)[C@H](Cc1ccccc1)NC(=O)[C@H](CO)NC(=O)CNC(=O)[C@H](CC(=O)O)NC(=O)CNC(=O)[C@@H](N)Cc1c[nH]cn1)[C@@H](C)O)[C@@H](C)CC)C(=O)N[C@@H](CC(N)=O)C(=O)N[C@@H](Cc1c[nH]c2ccccc12)C(=O)N[C@@H](CC(C)C)C(=O)N[C@H](C(=O)N[C@@H](CCC(N)=O)C(=O)N[C@H](C(=O)N[C@@H](CCCCN)C(=O)N[C@H](C(=O)N[C@H](C(=O)N[C@@H](CC(=O)O)C(=O)O)[C@@H](C)O)[C@@H](C)CC)[C@@H](C)O)[C@@H](C)CC [teduglutide]
Total, 0.05 mg/kg/day
  Immune system disorders: Events: 2 n
  Immune system disorders: Patients: 2 (11.1) n (%)
  Infections and infestations: Events: 81 n
  Infections and infestations: Patients: 12 (66.7) n (%)
  Influenza: Events: 21 n
  Injection site reaction: Events: 4 n
  Injection site reaction: Patients: 4 (22.2) n (%)
  Injury, poisoning, and procedural complications: Events: 6 n
  Injury, poisoning, and procedural complications: Patients: 5 (27.8) n (%)
  Insomnia: Events: 2 n
  Insomnia: Patients: 2 (11.1) n (%)
  Investigations: Events: 14 n
  Investigations: Patients: 7 (38.9) n (%)
  Metabolism and nutrition disorders: Events: 13 n
  Metabolism and nutrition disorders: Patients: 7 (38.9) n (%)
  Musculoskeletal and connective tissue disorders: Events: 12 n
  Musculoskeletal and connective tissue disorders: Patients: 8 (44.4) n (%)
  Nasopharyngitis: Events: 21 n
  Nasopharyngitis: Patients: 7 (38.9) n (%)
  Nausea: Events: 8 n
  Nausea: Patients: 4 (22.2) n (%)
  Nervous system disorders: Events: 26 n
  Nervous system disorders: Patients: 8 (44.4) n (%)
  Oral herpes: Events: 2 n
  Oral herpes: Patients: 2 (11.1) n (%)
  Oropharyngeal pain: Events: 4 n
  Oropharyngeal pain: Patients: 4 (22.2) n (%)
  Pruritus: Events: 2 n
  Pruritus: Patients: 2 (11.1) n (%)
  Psychiatric disorders: Events: 4 n
  Psychiatric disorders: Patients: 3 (16.7) n (%)
  Pyrexia: Events: 11 n
  Pyrexia: Patients: 8 (44.4) n (%)
  Renal and urinary disorders: Events: 6 n
  Renal and urinary disorders: Patients: 5 (27.8) n (%)
  Respiratory, thoracic, and mediastinal disorders: Events: 13 n
  Respiratory, thoracic, and mediastinal disorders: Patients: 7 (38.9) n (%)
  Skin and subcutaneous tissue disorders: Events: 18 n
  Skin and subcutaneous tissue disorders: Patients: 9 (50.0) n (%)
  Somnolence: Events: 3 n
  Somnolence: Patients: 3 (16.7) n (%)
  Stomatitis: Events: 4 n
  Stomatitis: Patients: 4 (22.2) n (%)
  Upper respiratory tract inflammation: Events: 3 n
  Upper respiratory tract inflammation: Patients: 2 (11.1) n (%)
  Vascular disorders: Events: 6 n
  Vascular disorders: Patients: 4 (22.2) n (%)
  Vascular pain: Events: 3 n
  Vascular pain: Patients: 2 (11.1) n (%)
  Vomiting: Events: 3 n
  Vomiting: Patients: 3 (16.7) n (%)
All studies
  Severity of the majority of all TEAEs: mild or moderate
During any of the studies
  Changes in clinical laboratory measures, vital signs, body weight, BMI, or ECG findings: no clinically meaningful changes
During the studies
  AEs related to growth of pre-existing polyps of the colon or gastrointestinal cancers: no AEs
[1]
  Abdominal distension: Events: 4 n
  Abdominal distension: Patients: 4 (22.2) n (%)
  Abdominal pain: Events: 5 n
  Abdominal pain: Patients: 5 (27.8) n (%)
  Anal abscess: Events: 0 n
  Anal abscess: Patients: 0 n (%)
  Anemia: Events: 2 n
  Anemia: Patients: 2 (11.1) n (%)
  Any TEAE: Events: 121 n
  Any TEAE: Patients: 17 (94.4) n (%)
  Arthralgia: Events: 0 n
  Arthralgia: Patients: 0 n (%)
  Back pain: Events: 1 n
  Back pain: Patients: 1 (5.6) n (%)
  Blood and lymphatic system disorders: Events: 4 n
  Blood and lymphatic system disorders: Patients: 3 (16.7) n (%)
  Catheter site infection: Events: 1 n
  Catheter site infection: Patients: 1 (5.6) n (%)
  Catheter site pain: Events: 1 n
  Catheter site pain: Patients: 1 (5.6) n (%)
  Dehydration: Events: 2 n
  Dehydration: Patients: 2 (11.1) n (%)
  Dermatitis contact: Events: 0 n
  Dermatitis contact: Patients: 0 n (%)
  Device occlusion (central venous catheter for PS): Events: 3 n
  Device occlusion (central venous catheter for PS): Patients: 2 (11.1) n (%)
  Device-related infection (central venous catheter for PS): Events: 9 n
  Device-related infection (central venous catheter for PS): Patients: 6 (33.3) n (%)
  Diarrhea: Events: 1 n
  Diarrhea: Patients: 1 (5.6) n (%)
  Dry skin: Events: 1 n
  Dry skin: Patients: 1 (5.6) n (%)
  Enteritis: Events: 1 n
  Enteritis: Patients: 1 (5.6) n (%)
  Enterocolitis: Events: 2 n
  Enterocolitis: Patients: 1 (5.6) n (%)
  Eye disorder: Events: 2 n
  Eye disorder: Patients: 2 (11.1) n (%)
  Gastrointestinal disorders: Events: 27 n
  Gastrointestinal disorders: Patients: 12 (66.7) n (%)
  General disorders and administration site conditions: Events: 21 n
  General disorders and administration site conditions: Patients: 9 (50.0) n (%)
  Headache: Events: 3 n
  Headache: Patients: 3 (16.7) n (%)
  Hematuria: Events: 1 n
  Hematuria: Patients: 1 (5.6) n (%)
  Hemorrhage subcutaneous: Events: 1 n
  Hemorrhage subcutaneous: Patients: 1 (5.6) n (%)
  Hepatobiliary disorders: Events: 3 n
  Hepatobiliary disorders: Patients: 2 (11.1) n (%)
  Hypersensitivity: Events: 0 n
  Hypersensitivity: Patients: 0 n (%)
  Hypozincemia: Events: 1 n
  Hypozincemia: Patients: 1 (5.6) n (%)
  Immune system disorders: Events: 0 n
  Immune system disorders: Patients: 0 n (%)
  Infections and infestations: Events: 19 n
  Infections and infestations: Patients: 8 (44.4) n (%)
  Influenza: Events: 0 n
  Influenza: Patients: 0 n (%)
  Injection site reaction: Events: 4 n
  Injection site reaction: Patients: 4 (22.2) n (%)
  Injury, poisoning, and procedural complications: Events: 5 n
  Injury, poisoning, and procedural complications: Patients: 4 (22.2) n (%)
  Insomnia: Events: 0 n
  Insomnia: Patients: 0 n (%)
  Investigations: Events: 9 n
  Investigations: Patients: 6 (33.3) n (%)
  Metabolism and nutrition disorders: Events: 6 n
  Metabolism and nutrition disorders: Patients: 4 (22.2) n (%)
  Musculoskeletal and connective tissue disorders: Events: 2 n
  Musculoskeletal and connective tissue disorders: Patients: 2 (11.1) n (%)
  Nasopharyngitis: Events: 3 n
  Nasopharyngitis: Patients: 3 (16.7) n (%)
  Nausea: Events: 1 n
  Nausea: Patients: 1 (5.6) n (%)
  Nervous system disorders: Events: 7 n
  Nervous system disorders: Patients: 4 (22.2) n (%)
  Oral herpes: Events: 1 n
  Oral herpes: Patients: 1 (5.6) n (%)
  Oropharyngeal pain: Events: 1 n
  Oropharyngeal pain: Patients: 1 (5.6) n (%)
  Pruritus: Events: 1 n
  Pruritus: Patients: 1 (5.6) n (%)
  Psychiatric disorders: Events: 0 n
  Psychiatric disorders: Patients: 0 n (%)
  Pyrexia: Events: 6 n
  Pyrexia: Patients: 6 (33.3) n (%)
  Renal and urinary disorders: Events: 2 n
  Renal and urinary disorders: Patients: 2 (11.1) n (%)
  Respiratory, thoracic, and mediastinal disorders: Events: 5 n
  Respiratory, thoracic, and mediastinal disorders: Patients: 5 (27.8) n (%)
  Skin and subcutaneous tissue disorders: Events: 5 n
  Skin and subcutaneous tissue disorders: Patients: 4 (22.2) n (%)
  Somnolence: Events: 0 n
  Somnolence: Patients: 0 n (%)
  Stomatitis: Events: 1 n
  Stomatitis: Patients: 1 (5.6) n (%)
  Upper respiratory tract inflammation: Events: 2 n
  Upper respiratory tract inflammation: Patients: 2 (11.1) n (%)
  Vascular disorders: Events: 2 n
  Vascular disorders: Patients: 2 (11.1) n (%)
  Vascular pain: Events: 0 n
  Vascular pain: Patients: 0 n (%)
  Vomiting: Events: 2 n
  Vomiting: Patients: 2 (11.1) n (%)
